Measurements taken from ChEMBL document CHEMBL1201862, “PubChem BioAssay data set” (2004).
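In this assay, cells in 96-well plates receive the compound at five concentrations for 48 hours. Endpoints are linearly interpolated between the surrounding concentrations. The concentration for 50% growth inhibition is given as GI50.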 Active and inactive are the calls of the source. Rule as the data show it: active = GI50 up to about 1.1 µM and inactive = higher.

Legend:
Assay in all cases: inhibition of tumour cell growth, NCI panel, 48 h
BT-549 = system: BT-549
CAKI-1 = system: CAKI-1
HCC 2998 = system: HCC 2998
HCT-116 = system: HCT-116
HT-29 = system: HT-29
Hs-578T = system: Hs-578T
Malme-3M = system: Malme-3M
NCI/ADR-RES = system: NCI/ADR-RES
OVCAR-4 = system: OVCAR-4
OVCAR-8 = system: OVCAR-8
PC-3 = system: PC-3
SK-MEL-5 = system: SK-MEL-5
SK-OV-3 = system: SK-OV-3
SN12C = system: SN12C
SR = system: SR
T47D = system: T47D
TK-10 = system: TK-10
U-251 = system: U-251
UO-31 = system: UO-31
XF498 = system: XF498

Measured: GI50

O=C1C=C(Br)C(=O)C12CCc1ccccc12 (stereo not given)
inactive: BT-549 17.9 µM | CAKI-1 6.47 µM | HCC 2998 22.3 µM | HCT-116 10.5 µM | HT-29 14.8 µM | Hs-578T 35.3 µM | Malme-3M 14.6 µM | NCI/ADR-RES 27.7 µM | OVCAR-4 24.7 µM | OVCAR-8 14.9 µM | PC-3 17.7 µM | SK-MEL-5 19.7 µM | SK-OV-3 27.4 µM | SN12C 17.3 µM | SR 3.27 µM | T47D 17.8 µM | TK-10 17.8 µM | U-251 21.7 µM | UO-31 18.5 µM | XF498 15.3 µM
